Drawing on patent publication US8710055B2, “Triazolylphenyl sulfonamides as serine/threonine kinase inhibitors” (Boehringer Ingelheim International GmbH, priority 2010, dated 2014), this text covers EC50 for 62 molecules.

One may read the EC50 as the concentration at which the effect is half-maximal. The low end stands for a more potent agent, the high end for a less potent agent.

Molecules are shown by their SMILES.

The subject of the assay is SK-MEL-28 cells (B-RAF V600E mutated). Put plainly: Inhibition of the proliferation of cultivated human melanoma cells (SK-MEL-28), AlamarBlue. It counts as cell-based. As to conditions: 72 h incubation. On the procedure:
Measurement of the Inhibition of the Proliferation of Cultivated Human Melanoma Cells (SK-MEL-28, B-RAF^[…] Mutated)
For measuring the proliferation of cultivated human tumour cells, cells of the melanoma cell line SK-MEL-28 [from American Type Culture Collection (ATCC)] are cultivated in MEM medium, supplemented with 10% foetal calf serum, 2% sodium bicarbonate, 1 mM sodium pyruvate, 1% non-essential amino acids (e.g. from Cambrex, # BE13-114E) and 2 mM glutamine. SK-MEL-28 cells are placed in 96-well flat bottomed dishes in a density of 2500 cells per well in supplemented MEM medium (see above) and incubated overnight in an incubator (at 37° C. and 5% CO2). The active substances are added to the cells in different concentrations, so that a concentration range of 50 μM to 3.2 nM is covered. If necessary the initial concentration of 50 μM is changed to 10 μM or 2 μM and further dilution is carried out accordingly (up to 0.6 nM or 0.12 nM). After an incubation period of a further 72 h 20 μL AlamarBlue reagent (Serotec Ltd., # BUF012B) are added to each well and the cells are incubated for a further 3-6 h. The colour change of the AlamarBlue reagent is determined in a fluorescence spectrophotometer (e.g. Gemini, Molecular Devices). EC50 values are calculated using a software program (GraphPadPrizm).
Background: Alamar Blue is a resazurin reagent that responds to reducing activity.
With `CCCS(=O)(=O)Nc1ccc(F)c(-n2cc(-c3cncc(N4CCN(CC)CC4)c3)nn2)c1F` [Example I-1], a half-maximal effect (EC50) was put at 113 nM. Molecule `CCCS(=O)(=O)Nc1ccc(F)c(-n2cc(-c3cncc(OC)c3)nn2)c1F` [Example I-2] showed an EC50 of 216 nM. With `CCCS(=O)(=O)Nc1ccc(F)c(-n2cc(-c3cncc(N4CCN(CCOCC)CC4)c3)nn2)c1F` [Example I-3], the half-maximal effective concentration (EC50) amounted to 82 nM. Next, `CCCS(=O)(=O)Nc1ccc(F)c(-n2cc(-c3cncc(C)c3)nn2)c1F` [Example I-4]: 535 nM; `CCCS(=O)(=O)Nc1ccc(F)c(-n2cc(-c3ccc(N)nc3)nn2)c1F` [Example I-5]: 1640 nM; `CCCS(=O)(=O)Nc1ccc(F)c(-n2cc(-c3ccc(NC(C)=O)nc3)nn2)c1F` [Example I-6]: 559 nM. In the case of `CCCS(=O)(=O)Nc1ccc(F)c(-n2cc(-c3cncc(Br)c3)nn2)c1F` [Example I-7] it was 279 nM; in that of `CCCS(=O)(=O)Nc1ccc(F)c(-n2cc(-c3cncc(N4CCC(N5CCOCC5)CC4)c3)nn2)c1F` [Example I-8], 305 nM; in that of `CCCS(=O)(=O)Nc1ccc(F)c(-n2cc(-c3cncc(N4CCN(C(C)(C)C)CC4)c3)nn2)c1F` [Example I-9], 132 nM.

`CCCS(=O)(=O)Nc1ccc(F)c(-n2cc(-c3cncc(N4CCN(CC5CC5)CC4)c3)nn2)c1F` [Example I-10] had a 50% effective concentration (EC50) of 107 nM. In the case of `CCCS(=O)(=O)Nc1ccc(F)c(-n2cc(-c3cncnc3)nn2)c1F` [Example I-11] it was 506 nM; in that of `CCCS(=O)(=O)Nc1ccc(F)c(-n2cc(-c3cncc(N4CCOCC4)c3)nn2)c1F` [Example I-12], 201 nM.

For `CCCS(=O)(=O)Nc1ccc(F)c(-n2cc(-c3cnc(NC4CCN(CCOC)CC4)nc3)nn2)c1F` [Example I-13], a half-maximal response (EC50) required 1020 nM.

`CCCS(=O)(=O)Nc1ccc(F)c(-n2cc(-c3cnn(C)c3C)nn2)c1F` [Example I-14] gave a half-maximal effective concentration (EC50) of 1720 nM. In the case of `CCCS(=O)(=O)Nc1ccc(F)c(-n2cc(-c3cccnc3)nn2)c1F` [Example I-15], the response was half-maximal at 1820 nM (EC50). In the case of `CCCS(=O)(=O)Nc1ccc(F)c(-n2cc(-c3cncc(N4CCN(CCOC(C)C)CC4)c3)nn2)c1F` [Example I-16] it was 87 nM.

In the case of `CCCS(=O)(=O)Nc1ccc(F)c(-n2cc(-c3cncc(F)c3)nn2)c1F` [Example I-17], the EC50 came out at 1260 nM. Next, `CCCS(=O)(=O)Nc1ccc(F)c(-n2cc(-c3cncc(N4CCN(C5CC5)CC4)c3)nn2)c1F` [Example I-18]: 75 nM; `COc1cncc(-c2cn(-c3c(F)ccc(NS(=O)(=O)C(C)C)c3F)nn2)c1` [Example I-19]: 493 nM. Consider `CC(C)S(=O)(=O)Nc1ccc(F)c(-n2cc(-c3cncc(N4CCN(C(C)(C)C)CC4)c3)nn2)c1F` [Example I-20], for which it took 245 nM to reach a half-maximal effect (EC50).

`CC(C)N1CCN(c2cncc(-c3cn(-c4c(F)ccc(NS(=O)(=O)C(C)C)c4F)nn3)c2)CC1` [Example I-21]: the response was half-maximal at 314 nM (EC50). Next, `CC(C)S(=O)(=O)Nc1ccc(F)c(-n2cc(-c3cncc(N4CCN(CC5CC5)CC4)c3)nn2)c1F` [Example I-22]: 231 nM. In the case of `CC(C)S(=O)(=O)Nc1ccc(F)c(-n2cc(-c3cncc(N4CCN(C)CC4)c3)nn2)c1F` [Example I-23] it was 459 nM. `CC(C)CS(=O)(=O)Nc1ccc(F)c(-n2cc(-c3cncc(N4CCN(C)CC4)c3)nn2)c1F` [Example I-24] had an EC50 of 117 nM. `COc1cncc(-c2cn(-c3c(F)ccc(NS(=O)(=O)CC(C)C)c3F)nn2)c1` [Example I-25]: the EC50 is 158 nM. With `CC(C)CS(=O)(=O)Nc1ccc(F)c(-n2cc(-c3cncc(N4CCN(C(C)C)CC4)c3)nn2)c1F` [Example I-26], the EC50 turned out to be 98 nM. Molecule `CC(C)CS(=O)(=O)Nc1ccc(F)c(-n2cc(-c3cncc(N4CCN(C(C)(C)C)CC4)c3)nn2)c1F` [Example I-27] displayed an EC50 of 96 nM. In the case of `CC(C)CS(=O)(=O)Nc1ccc(F)c(-n2cc(-c3cncc(N4CCN(CC5CC5)CC4)c3)nn2)c1F` [Example I-28], a half-maximal effect (EC50) was put at 88 nM. `CC(C)CS(=O)(=O)Nc1ccc(F)c(-n2cc(-c3cncc(N4CCN(C5CC5)CC4)c3)nn2)c1F` [Example I-29] showed a concentration giving a half-maximal response (EC50) of 37 nM. As for `CCCS(=O)(=O)Nc1ccc(F)c(-n2cc(-c3cncc(N(C)CCOC)c3)nn2)c1F` [Example I-30], the midpoint of the response, the EC50, lay at 1230 nM. In the case of `CCCS(=O)(=O)Nc1ccc(F)c(-n2cc(-c3cncc(N(C)CCN4CCOCC4)c3)nn2)c1F` [Example I-31] it was 1450 nM; in that of `CCCS(=O)(=O)Nc1ccc(F)c(-n2cc(-c3cncc(-n4cnc(C)c4)c3)nn2)c1F` [Example I-32], 114 nM.

`CCCS(=O)(=O)Nc1ccc(F)c(-n2cc(-c3cncc(OC4CCOCC4)c3)nn2)c1F` [Example I-33] displayed an EC50 of 671 nM. Next, `CCCS(=O)(=O)Nc1ccc(F)c(-n2cc(-c3cncc(OC(C)C)c3)nn2)c1F` [Example I-34]: 218 nM; `CCCS(=O)(=O)Nc1ccc(F)c(-n2cc(-c3cncc(OCC)c3)nn2)c1F` [Example I-35]: 358 nM. In the case of `CCCS(=O)(=O)Nc1ccc(F)c(-n2cc(-c3cncc(OCCOC)c3)nn2)c1F` [Example I-36] it was 589 nM; in that of `CCCS(=O)(=O)Nc1ccc(F)c(-n2cc(-c3cncc(OCCN(C)C(C)C)c3)nn2)c1F` [Example I-37], 928 nM. Turning to `COc1cncc(-c2cn(-c3c(F)ccc(NS(=O)(=O)c4cc(F)ccc4F)c3F)nn2)c1` [Example I-38], the concentration for a half-maximal effect (EC50) came out at 363 nM. Next, `CCCS(=O)(=O)Nc1ccc(Cl)c(-n2cc(-c3cncc(OC)c3)nn2)c1F` [Example I-39]: 145 nM; `CCS(=O)(=O)Nc1ccc(Cl)c(-n2cc(-c3cncc(OC)c3)nn2)c1F` [Example I-40]: 327 nM; `COc1cncc(-c2cn(-c3c(Cl)ccc(NS(=O)(=O)C(C)C)c3F)nn2)c1` [Example I-41]: 403 nM. As for `COc1cncc(-c2cn(-c3c(F)ccc(NS(=O)(=O)c4cccnc4)c3F)nn2)c1` [Example I-42], the EC50 was 292 nM. In the case of `CCCCS(=O)(=O)Nc1ccc(F)c(-n2cc(-c3cncc(OC)c3)nn2)c1F` [Example I-43] it was 432 nM; in that of `COc1cncc(-c2cn(-c3c(F)ccc(NS(=O)(=O)c4ccoc4)c3F)nn2)c1` [Example I-45], 24 nM. In the case of `COc1cncc(-c2cn(-c3c(F)ccc(NS(=O)(=O)CC4CC4)c3F)nn2)c1` [Example I-46], a half-maximal response (EC50) required 480 nM.

The molecule `COc1cncc(-c2cn(-c3c(F)ccc(NS(=O)(=O)c4ccco4)c3F)nn2)c1` [Example I-47] yielded an EC50 of 159 nM. `CCCS(=O)(=O)Nc1ccc(F)c(-n2cc(-c3cncc(-n4cc(C)nc4C)c3)nn2)c1F` [Example I-48] gave a concentration giving a half-maximal response (EC50) of 545 nM. Next, `CCCS(=O)(=O)Nc1ccc(F)c(-n2cc(-c3cncc(N4CCNCC4)c3)nn2)c1F` [Example I-50]: 493 nM; `CCCS(=O)(=O)Nc1ccc(F)c(-n2cc(-c3cncc(N4CCN(C5COC5)CC4)c3)nn2)c1F` [Example I-51]: 114 nM; `CCCS(=O)(=O)Nc1ccc(F)c(-n2cc(-c3cncc(N4CCN(CC#N)CC4)c3)nn2)c1F` [Example I-52]: 153 nM. Molecule `C#CCN1CCN(c2cncc(-c3cn(-c4c(F)ccc(NS(=O)(=O)CCC)c4F)nn3)c2)CC1` [Example I-53] had a 50% effective concentration (EC50) of 68 nM. In the case of `O=S(=O)(Nc1ccc(F)c(-n2cc(-c3cncc(N4CCN(CC5CC5)CC4)c3)nn2)c1Cl)c1ccoc1` [Example I-54] it was 7 nM; in that of `COc1cncc(-c2cn(-c3c(F)ccc(NS(=O)(=O)c4ccoc4)c3Cl)nn2)c1` [Example I-55], 32 nM.

Consider `COCCS(=O)(=O)Nc1ccc(F)c(-n2cc(-c3cncc(N4CCN(C5CC5)CC4)c3)nn2)c1F` [Example I-56], for which the concentration for a half-maximal effect (EC50) stood at 675 nM. Next, `CCCS(=O)(=O)Nc1ccc(F)c(-n2cc(-c3cncc(-n4cnc(C(F)(F)F)c4)c3)nn2)c1F` [Example I-57]: 306 nM. Next, `CCCS(=O)(=O)Nc1ccc(F)c(-n2cc(-c3cncc(N4CCN(C5CCOC5)CC4)c3)nn2)c1F` (centres unmarked) [Example I-58]: 71 nM. For `CCCS(=O)(=O)Nc1ccc(F)c(-n2cc(-c3cncc(N4CCN(C5CCC5)CC4)c3)nn2)c1F` [Example I-59], the 50% effective concentration (EC50) was determined as 98 nM.

`O=S(=O)(Nc1ccc(F)c(-n2cc(-c3cncc(N4CCN(C5CC5)CC4)c3)nn2)c1F)c1ccoc1` [Example I-60] returned a half-maximal effective concentration (EC50) of 9 nM.

Regarding `CC(C)N1CCN(c2cncc(-c3cn(-c4c(F)ccc(NS(=O)(=O)c5ccoc5)c4F)nn3)c2)CC1` [Example I-61], the EC50 worked out at 10 nM. In the case of `CCCS(=O)(=O)Nc1ccc(F)c(-n2cc(-c3cncc(N4CCN(C(C)C)CC4)c3)nn2)c1Cl` [Example I-63] it was 44 nM.

The molecule `CCCS(=O)(=O)Nc1ccc(F)c(-n2cc(-c3cncc(N4CCN(CC5CC5)CC4)c3)nn2)c1Cl` [Example I-64] returned an EC50 of 38 nM. `CCCS(=O)(=O)Nc1ccc(F)c(-n2cc(-c3cncc(N4CCN(C5CC5)CC4)c3)nn2)c1Cl` [Example I-65] had a half-maximal effective concentration (EC50) of 32 nM.
